Assay results taken from article PMC11092066, “Novel analogues of a nonnucleoside SARS-CoV-2 RdRp inhibitor as potential antivirotics” (Beilstein Journal of Organic Chemistry, 2024).

Molecular target: SARS-CoV-2 RdRp (nsp12, nsp7, nsp8 polymerase complex) (Severe acute respiratory syndrome coronavirus 2, UniProt P0DTD1)
Test: biochemical
Assay type: biochemical
Conditions: for BEI (binding efficiency index): calculated as pIC50 [mol/L]/MW [kDa] from SARS-CoV-2 RdRp IC50; for IC50: recombinant RdRp: 1 μM nsp12, 3 μM nsp7, 3 μM nsp8, 0.5 μM template/primer RNA, 10 μM NTPs, 1 h at 30 °C, GraphPad fit

SMILES | BEI (binding efficiency index) | IC50 | inhibitory activity against SARS-CoV-2 RdRp (in words) (primer extension polymerase assay)
Cn1cc(C(=O)N[C@@H](Cc2ccc(O)cc2)C(=O)O)cc(-c2cccnc2)c1=O [3b] | 9.4 | 204 µM | 
O=C(N[C@@H](Cc1ccc(O)cc1)C(=O)O)c1cc(-c2ccccc2)c(=O)n2ccsc12 [4a] | 9.3 | 88.1 µM | 
O=C(N[C@@H](Cc1ccc(O)cc1)C(=O)O)c1cc(-c2ccccc2)c(=O)n2c1sc1ccc(OC3CCCCC3)cc12 [compound 1, HeE1-2Tyr, reference compound] | 7.8 |  | 
Cn1cc(C(=O)N[C@@H](Cc2ccc(O)cc2)C(=O)O)cc(-c2ccsc2)c1=O [3c] | 10.2 | 88.1 µM | 
O=C(N[C@@H](Cc1ccc(O)cc1)C(=O)O)c1cc(-c2ccccc2)c(=O)n2c1oc1ccc(OC3CCCCC3)cc12 [compound 2] |  |  | devoid of any activity
Cn1cc(C(=O)N[C@@H](Cc2ccc(O)cc2)C(=O)O)cc(-c2ccccc2)c1=O [3a] | 9.9 |  | 
O=C(N[C@@H](Cc1ccc(O)cc1)C(=O)O)c1cc(-c2ccccc2)c(=O)n(-c2cc(OC3CCCCC3)ccc2O)c1O [compound 16] | 6.7 | 114 µM | 
Cc1nn2c(=O)c(-c3ccccc3)cc(C(=O)N[C@@H](Cc3ccc(O)cc3)C(=O)O)c2s1 [4b] | 8.8 | 113 µM | 
